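Each compound was tested at five concentrations against cells in 96-well plates for 48 hours. GI50 is the concentration that inhibits growth by half. TGI: concentration producing complete growth inhibition.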
What was measured:
Test in all cases: NCI tumour cell line growth inhibition, 48 h
SF-268 CNS = tested on: SF-268 CNS
OVCAR-8 ovarian = tested on: OVCAR-8 ovarian
EKVX NSCLC = tested on: EKVX NSCLC
SK-MEL-2 melanoma = tested on: SK-MEL-2 melanoma
SN12C renal = tested on: SN12C renal
KM12 colon = tested on: KM12 colon
NCI-H522 lung = tested on: NCI-H522 lung
MCF7 breast = tested on: MCF7 breast
MDA-MB-231 breast = tested on: MDA-MB-231 breast
RPMI-8226 leukemia = tested on: RPMI-8226 leukemia
M14 melanoma = tested on: M14 melanoma
HCT-15 colon = tested on: HCT-15 colon
UACC-62 melanoma = tested on: UACC-62 melanoma
HOP-92 NSCLC = tested on: HOP-92 NSCLC
SK-OV-3 ovarian = tested on: SK-OV-3 ovarian
LOX IMVI melanoma = tested on: LOX IMVI melanoma
SNB-75 CNS = tested on: SNB-75 CNS
SNB-19 CNS = tested on: SNB-19 CNS
MOLT-4 leukemia = tested on: MOLT-4 leukemia
MDA-MB-435 = tested on: MDA-MB-435
OVCAR-5 ovarian = tested on: OVCAR-5 ovarian
CCRF-CEM leukemia = tested on: CCRF-CEM leukemia
NCI-H226 lung = tested on: NCI-H226 lung
MALME-3M melanoma = tested on: MALME-3M melanoma
T-47D breast = tested on: T-47D breast
UO-31 renal = tested on: UO-31 renal
NCI/ADR-RES ovarian = tested on: NCI/ADR-RES ovarian
HT29 colon = tested on: HT29 colon
HOP-62 NSCLC = tested on: HOP-62 NSCLC
SF-539 CNS = tested on: SF-539 CNS
BT-549 breast = tested on: BT-549 breast
PC-3 prostate = tested on: PC-3 prostate
NCI-H460 lung = tested on: NCI-H460 lung
HCC-2998 colon = tested on: HCC-2998 colon
MDA-MB-468 breast = tested on: MDA-MB-468 breast
SF-295 CNS = tested on: SF-295 CNS
OVCAR-3 ovarian = tested on: OVCAR-3 ovarian
ACHN renal = tested on: ACHN renal
HCT-116 colon = tested on: HCT-116 colon
HL-60(TB) leukemia = tested on: HL-60(TB) leukemia
RXF 393 renal = tested on: RXF 393 renal
COLO 205 colon = tested on: COLO 205 colon
HS 578T breast = tested on: HS 578T breast
NCI-H23 lung = tested on: NCI-H23 lung
U251 CNS = tested on: U251 CNS
OVCAR-4 ovarian = tested on: OVCAR-4 ovarian
K-562 leukemia = tested on: K-562 leukemia
A549 NSCLC = tested on: A549 NSCLC
A498 renal = tested on: A498 renal
CAKI-1 renal = tested on: CAKI-1 renal
SK-MEL-5 melanoma = tested on: SK-MEL-5 melanoma
SR leukemia = tested on: SR leukemia
UACC-257 melanoma = tested on: UACC-257 melanoma
TK-10 renal = tested on: TK-10 renal
SK-MEL-28 melanoma = tested on: SK-MEL-28 melanoma
786-0 renal = tested on: 786-0 renal
SW-620 colon = tested on: SW-620 colon
IGROV1 ovarian = tested on: IGROV1 ovarian
DU-145 prostate = tested on: DU-145 prostate

## CCOC(=O)c1ccc(NC(=O)CSC(CC(=O)c2sc(Nc3ccccn3)nc2C)c2ccccc2F)cc1 (stereo not drawn)
SF-268 CNS
  GI50: 43.1 µM
  TGI: > 100 µM
OVCAR-8 ovarian
  GI50: 53.6 µM
  TGI: > 100 µM
EKVX NSCLC
  GI50: 19 µM
  TGI: > 100 µM
SK-MEL-2 melanoma
  GI50: 44.9 µM
  TGI: > 100 µM
SN12C renal
  GI50: 28 µM
  TGI: > 100 µM
KM12 colon
  GI50: 55.6 µM
  TGI: > 100 µM
NCI-H522 lung
  GI50: 21.6 µM
  TGI: > 100 µM
MCF7 breast
  GI50: 15.4 µM
  TGI: > 100 µM
MDA-MB-231 breast
  GI50: 19.3 µM
  TGI: > 100 µM
RPMI-8226 leukemia
  GI50: 8.29 µM
  TGI: > 100 µM
M14 melanoma
  GI50: 19.4 µM
  TGI: > 100 µM
HCT-15 colon
  GI50: 25.8 µM
  TGI: > 100 µM
UACC-62 melanoma
  GI50: 16.1 µM
  TGI: > 100 µM
HOP-92 NSCLC
  GI50: 12.5 µM
  TGI: > 100 µM
SK-OV-3 ovarian
  GI50: 26 µM
  TGI: > 100 µM
LOX IMVI melanoma
  GI50: 0.312 µM
  TGI: > 100 µM
SNB-75 CNS
  GI50: 3.59 µM
  TGI: 48.8 µM
SNB-19 CNS
  GI50: 36.9 µM
  TGI: > 100 µM
MOLT-4 leukemia
  GI50: 32.2 µM
  TGI: > 100 µM
MDA-MB-435
  GI50: 26.3 µM
  TGI: > 100 µM
OVCAR-5 ovarian
  GI50: 74.4 µM
  TGI: > 100 µM
CCRF-CEM leukemia
  GI50: 18.6 µM
  TGI: > 100 µM
NCI-H226 lung
  GI50: 2.52 µM
  TGI: 85.9 µM
MALME-3M melanoma
  GI50: 25.4 µM
  TGI: > 100 µM
T-47D breast
  GI50: 18 µM
  TGI: > 100 µM
UO-31 renal
  GI50: 3.19 µM
  TGI: > 100 µM
NCI/ADR-RES ovarian
  GI50: 24.1 µM
  TGI: > 100 µM
HT29 colon
  GI50: 58.3 µM
  TGI: > 100 µM
HOP-62 NSCLC
  GI50: 37.5 µM
  TGI: > 100 µM
SF-539 CNS
  GI50: 32.5 µM
  TGI: > 100 µM
BT-549 breast
  GI50: 14.7 µM
  TGI: 81.5 µM
PC-3 prostate
  GI50: 23.8 µM
  TGI: > 100 µM
NCI-H460 lung
  GI50: 31.2 µM
  TGI: > 100 µM
HCC-2998 colon
  GI50: 23.1 µM
  TGI: > 100 µM
MDA-MB-468 breast
  GI50: 4.24 µM
  TGI: 44.3 µM
SF-295 CNS
  GI50: 32.2 µM
  TGI: > 100 µM
OVCAR-3 ovarian
  GI50: 31.7 µM
  TGI: > 100 µM
ACHN renal
  GI50: 45.6 µM
  TGI: > 100 µM
HCT-116 colon
  GI50: 23 µM
  TGI: > 100 µM
HL-60(TB) leukemia
  GI50: 21.4 µM
  TGI: > 100 µM
RXF 393 renal
  GI50: 2.59 µM
  TGI: 23.5 µM
COLO 205 colon
  GI50: > 100 µM
  TGI: > 100 µM
HS 578T breast
  GI50: 14.9 µM
  TGI: 94.8 µM
NCI-H23 lung
  GI50: 22.7 µM
  TGI: > 100 µM
U251 CNS
  GI50: 47.8 µM
  TGI: > 100 µM
OVCAR-4 ovarian
  GI50: 66.1 µM
  TGI: > 100 µM
K-562 leukemia
  GI50: 30.4 µM
  TGI: > 100 µM
A549 NSCLC
  GI50: 75.7 µM
  TGI: > 100 µM
A498 renal
  GI50: 69.2 µM
  TGI: > 100 µM
CAKI-1 renal
  GI50: 11.5 µM
  TGI: > 100 µM
SK-MEL-5 melanoma
  GI50: 18.6 µM
  TGI: 82 µM
SR leukemia
  GI50: 24.1 µM
  TGI: > 100 µM
UACC-257 melanoma
  GI50: 38.4 µM
  TGI: > 100 µM
TK-10 renal
  GI50: 82.3 µM
  TGI: > 100 µM
SK-MEL-28 melanoma
  GI50: 38.7 µM
  TGI: > 100 µM
786-0 renal
  GI50: 24.8 µM
  TGI: > 100 µM
SW-620 colon
  GI50: 75.3 µM
  TGI: > 100 µM
IGROV1 ovarian
  GI50: 12.1 µM
  TGI: 83.3 µM
DU-145 prostate
  GI50: 67.2 µM
  TGI: > 100 µM
